ChEMBL document CHEMBL4800728, “Data for DCP probe JNJ-54119936” (2021)

Legend:
[1] = biological target: Sigma non-opioid intracellular receptor 1 (Homo sapiens, UniProt Q99720); test: GPCRScan assay: inhibition of Sigma 1; design: radioligand conc. used [nm] 4.0 – 5.0, parental cells HEKT
[2] = biological target: Casein kinase II subunit alpha' (Homo sapiens) (UniProt P19784); test: CK2alpha2 Invitrogen kinase panel; conditions: Compound concentration 10.0 uM
[3] = biological target: Ephrin type-A receptor 2 (Homo sapiens) (UniProt P29317); test: EphA2 Invitrogen kinase panel; conditions: Compound concentration 10.0 uM
[4] = biological target: Serine/threonine-protein kinase PAK 4 (Homo sapiens) (UniProt O96013); test: PAK4 Invitrogen kinase panel; conditions: Compound concentration 10.0 uM
[5] = biological target: cAMP-dependent protein kinase catalytic subunit alpha (Homo sapiens) (UniProt P17612); test: PKA Invitrogen kinase panel; conditions: Compound concentration 10.0 uM
[6] = biological target: Oxysterols receptor LXR-alpha (Homo sapiens) (UniProt Q13133); test: (§1) LXRalpha In-house nuclear receptor screen; conditions: Compound concentration 3.0 uM
[7] = biological target: Oxysterols receptor LXR-alpha (Homo sapiens, UniProt Q13133); test: as §1
[8] = biological target: T1, Bile acid receptor (Homo sapiens) (UniProt Q96RI1); test: (§2) FXR In-house nuclear receptor screen; conditions: Compound concentration 3.0 uM
T1 sequence (whole entry): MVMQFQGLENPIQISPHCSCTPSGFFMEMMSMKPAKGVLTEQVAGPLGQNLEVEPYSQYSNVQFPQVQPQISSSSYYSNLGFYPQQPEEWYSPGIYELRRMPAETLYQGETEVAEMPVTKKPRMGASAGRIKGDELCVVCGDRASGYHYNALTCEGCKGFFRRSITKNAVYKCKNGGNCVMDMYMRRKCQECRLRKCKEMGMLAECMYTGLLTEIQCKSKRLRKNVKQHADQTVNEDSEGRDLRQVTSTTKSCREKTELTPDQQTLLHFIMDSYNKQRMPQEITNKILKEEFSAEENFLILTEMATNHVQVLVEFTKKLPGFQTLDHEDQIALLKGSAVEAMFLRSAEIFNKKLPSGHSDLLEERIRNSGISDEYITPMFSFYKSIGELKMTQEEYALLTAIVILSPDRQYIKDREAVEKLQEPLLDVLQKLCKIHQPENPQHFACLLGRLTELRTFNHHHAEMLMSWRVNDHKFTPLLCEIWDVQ

Bile acid receptor = Bile acid receptor (Homo sapiens, UniProt Q96RI1); test: as §2
[9] = biological target: T2, Glucocorticoid receptor (Homo sapiens) (UniProt P04150); test: (§3) GR In-house nuclear receptor screen; conditions: Compound concentration 3.0 uM
T2 sequence (whole entry): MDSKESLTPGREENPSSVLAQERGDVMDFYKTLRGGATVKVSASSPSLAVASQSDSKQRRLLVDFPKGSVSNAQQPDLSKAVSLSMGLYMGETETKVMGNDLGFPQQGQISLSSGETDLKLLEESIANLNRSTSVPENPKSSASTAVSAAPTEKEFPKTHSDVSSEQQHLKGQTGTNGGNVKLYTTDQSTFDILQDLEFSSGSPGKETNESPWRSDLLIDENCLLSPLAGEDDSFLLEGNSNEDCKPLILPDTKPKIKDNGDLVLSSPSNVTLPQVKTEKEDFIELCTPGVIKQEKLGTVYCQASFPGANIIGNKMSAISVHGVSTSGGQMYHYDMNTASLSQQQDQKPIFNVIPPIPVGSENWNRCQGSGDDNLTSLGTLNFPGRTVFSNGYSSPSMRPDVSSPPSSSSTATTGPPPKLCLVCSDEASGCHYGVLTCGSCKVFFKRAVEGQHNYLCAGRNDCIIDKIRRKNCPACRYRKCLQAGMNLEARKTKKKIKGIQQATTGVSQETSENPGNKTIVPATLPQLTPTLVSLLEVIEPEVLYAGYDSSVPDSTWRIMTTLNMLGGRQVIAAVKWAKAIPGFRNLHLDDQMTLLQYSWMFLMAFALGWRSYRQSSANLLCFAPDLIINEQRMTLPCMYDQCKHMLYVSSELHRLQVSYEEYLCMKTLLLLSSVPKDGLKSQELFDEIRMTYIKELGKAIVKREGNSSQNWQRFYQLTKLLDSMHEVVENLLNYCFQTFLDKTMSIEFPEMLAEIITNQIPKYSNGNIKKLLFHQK

Glucocorticoid receptor = Glucocorticoid receptor (Homo sapiens, UniProt P04150); test: as §3
[10] = biological target: T3, Estrogen receptor (Homo sapiens) (UniProt P03372); test: ERalpha In-house nuclear receptor screen; conditions: Compound concentration 3.0 uM
T3 sequence (whole entry): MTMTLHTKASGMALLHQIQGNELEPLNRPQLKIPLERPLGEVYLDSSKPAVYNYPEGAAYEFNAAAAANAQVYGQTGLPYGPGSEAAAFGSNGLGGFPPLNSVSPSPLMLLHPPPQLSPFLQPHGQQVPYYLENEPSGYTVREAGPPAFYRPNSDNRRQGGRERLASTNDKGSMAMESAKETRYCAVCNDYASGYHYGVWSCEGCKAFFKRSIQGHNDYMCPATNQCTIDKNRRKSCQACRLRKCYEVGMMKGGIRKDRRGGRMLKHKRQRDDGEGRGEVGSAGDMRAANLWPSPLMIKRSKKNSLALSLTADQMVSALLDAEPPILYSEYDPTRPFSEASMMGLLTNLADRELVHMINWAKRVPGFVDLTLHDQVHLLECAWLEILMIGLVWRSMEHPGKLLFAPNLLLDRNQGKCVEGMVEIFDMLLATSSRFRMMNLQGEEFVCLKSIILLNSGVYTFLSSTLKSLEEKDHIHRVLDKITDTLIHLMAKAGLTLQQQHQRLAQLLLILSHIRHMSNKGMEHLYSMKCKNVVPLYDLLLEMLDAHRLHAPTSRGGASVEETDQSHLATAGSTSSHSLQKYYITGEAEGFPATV

[11] = biological target: C-X-C chemokine receptor type 2 (Homo sapiens) (UniProt P25025); test: CXCR2 (h) CEREP screen; conditions: Compound concentration 1.0 uM
[12] = biological target: 5-hydroxytryptamine receptor 6 (Homo sapiens) (UniProt P50406); test: 5-HT6 (h) CEREP screen
[13] = biological target: T4, Peroxisome proliferator-activated receptor delta (Homo sapiens) (UniProt Q03181); test: PPARdelta Indigo Bioscience nuclear receptor screen
T4 sequence (whole entry): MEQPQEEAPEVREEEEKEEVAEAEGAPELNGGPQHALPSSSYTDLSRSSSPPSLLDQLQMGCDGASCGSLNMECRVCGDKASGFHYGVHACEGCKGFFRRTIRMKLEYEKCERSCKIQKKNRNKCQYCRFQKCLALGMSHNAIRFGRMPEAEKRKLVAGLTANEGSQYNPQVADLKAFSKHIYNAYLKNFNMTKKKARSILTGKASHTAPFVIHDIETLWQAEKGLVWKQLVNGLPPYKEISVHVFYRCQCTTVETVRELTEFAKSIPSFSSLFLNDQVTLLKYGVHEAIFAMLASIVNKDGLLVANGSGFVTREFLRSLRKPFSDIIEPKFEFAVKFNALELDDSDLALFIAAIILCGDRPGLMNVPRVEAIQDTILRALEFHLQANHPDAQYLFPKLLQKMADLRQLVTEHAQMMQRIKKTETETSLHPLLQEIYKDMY

[14] = biological target: Beta-1 adrenergic receptor (Homo sapiens) (UniProt P08588); conditions: Compound concentration 10.0 uM
Chain of Beta-1 adrenergic receptor (Homo sapiens) (P08588 whole entry, looked up): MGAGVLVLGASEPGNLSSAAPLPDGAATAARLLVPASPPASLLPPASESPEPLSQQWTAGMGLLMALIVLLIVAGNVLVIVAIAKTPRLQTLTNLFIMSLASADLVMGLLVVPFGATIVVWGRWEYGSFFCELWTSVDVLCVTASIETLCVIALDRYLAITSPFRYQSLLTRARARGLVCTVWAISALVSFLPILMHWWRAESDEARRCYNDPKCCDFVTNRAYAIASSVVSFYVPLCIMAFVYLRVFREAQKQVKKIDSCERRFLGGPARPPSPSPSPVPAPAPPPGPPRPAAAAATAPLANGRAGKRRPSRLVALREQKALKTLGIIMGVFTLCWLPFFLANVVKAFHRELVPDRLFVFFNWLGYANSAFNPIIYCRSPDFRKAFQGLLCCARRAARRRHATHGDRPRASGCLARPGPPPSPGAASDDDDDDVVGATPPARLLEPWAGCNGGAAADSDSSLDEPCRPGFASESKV

Chain of Sigma non-opioid intracellular receptor 1 (Q99720 whole entry): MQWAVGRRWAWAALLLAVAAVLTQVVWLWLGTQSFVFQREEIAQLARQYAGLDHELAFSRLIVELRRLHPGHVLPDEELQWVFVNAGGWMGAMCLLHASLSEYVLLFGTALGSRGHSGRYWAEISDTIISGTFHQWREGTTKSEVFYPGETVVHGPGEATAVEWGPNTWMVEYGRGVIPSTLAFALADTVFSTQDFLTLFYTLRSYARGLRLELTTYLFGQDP
Chain of 5-hydroxytryptamine receptor 6 (Homo sapiens) (P50406 whole entry): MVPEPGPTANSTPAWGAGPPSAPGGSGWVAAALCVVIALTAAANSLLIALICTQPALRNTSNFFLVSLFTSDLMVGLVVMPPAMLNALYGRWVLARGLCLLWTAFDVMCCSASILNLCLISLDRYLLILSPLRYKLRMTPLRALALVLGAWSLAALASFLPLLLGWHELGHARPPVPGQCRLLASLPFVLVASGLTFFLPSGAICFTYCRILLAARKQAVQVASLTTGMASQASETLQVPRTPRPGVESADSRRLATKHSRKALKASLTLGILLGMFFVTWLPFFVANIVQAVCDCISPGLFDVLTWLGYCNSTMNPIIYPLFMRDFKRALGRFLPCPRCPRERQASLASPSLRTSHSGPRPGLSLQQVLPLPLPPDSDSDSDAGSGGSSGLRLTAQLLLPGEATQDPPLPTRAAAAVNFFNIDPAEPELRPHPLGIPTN
Chain of Serine/threonine-protein kinase PAK 4 (Homo sapiens) (O96013 whole entry, looked up): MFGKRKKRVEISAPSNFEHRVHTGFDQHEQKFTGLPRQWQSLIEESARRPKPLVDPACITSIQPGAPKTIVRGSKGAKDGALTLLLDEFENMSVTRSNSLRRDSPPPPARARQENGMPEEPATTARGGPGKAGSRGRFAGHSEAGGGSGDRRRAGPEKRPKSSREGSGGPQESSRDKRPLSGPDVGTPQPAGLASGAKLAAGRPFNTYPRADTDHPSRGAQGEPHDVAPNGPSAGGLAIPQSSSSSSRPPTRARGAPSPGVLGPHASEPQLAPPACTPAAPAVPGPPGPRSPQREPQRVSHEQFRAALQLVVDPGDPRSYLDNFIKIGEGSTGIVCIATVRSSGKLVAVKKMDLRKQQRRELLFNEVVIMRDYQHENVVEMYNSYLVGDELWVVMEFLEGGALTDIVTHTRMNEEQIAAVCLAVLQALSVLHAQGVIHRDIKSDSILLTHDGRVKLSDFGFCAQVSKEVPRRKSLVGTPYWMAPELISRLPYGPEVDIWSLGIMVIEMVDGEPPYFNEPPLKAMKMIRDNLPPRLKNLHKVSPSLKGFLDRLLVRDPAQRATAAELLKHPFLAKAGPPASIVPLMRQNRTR
Chain of Casein kinase II subunit alpha' (Homo sapiens) (P19784 whole entry, looked up): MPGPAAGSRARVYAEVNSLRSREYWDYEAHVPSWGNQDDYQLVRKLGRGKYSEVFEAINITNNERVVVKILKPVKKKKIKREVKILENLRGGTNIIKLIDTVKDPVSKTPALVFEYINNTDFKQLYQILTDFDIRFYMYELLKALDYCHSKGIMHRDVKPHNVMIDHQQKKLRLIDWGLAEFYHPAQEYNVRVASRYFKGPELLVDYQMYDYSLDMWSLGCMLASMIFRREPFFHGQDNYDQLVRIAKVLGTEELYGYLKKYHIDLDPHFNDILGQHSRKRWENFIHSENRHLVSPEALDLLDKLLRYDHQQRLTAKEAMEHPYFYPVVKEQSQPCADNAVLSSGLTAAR
Chain of Oxysterols receptor LXR-alpha (Homo sapiens) (Q13133 whole entry): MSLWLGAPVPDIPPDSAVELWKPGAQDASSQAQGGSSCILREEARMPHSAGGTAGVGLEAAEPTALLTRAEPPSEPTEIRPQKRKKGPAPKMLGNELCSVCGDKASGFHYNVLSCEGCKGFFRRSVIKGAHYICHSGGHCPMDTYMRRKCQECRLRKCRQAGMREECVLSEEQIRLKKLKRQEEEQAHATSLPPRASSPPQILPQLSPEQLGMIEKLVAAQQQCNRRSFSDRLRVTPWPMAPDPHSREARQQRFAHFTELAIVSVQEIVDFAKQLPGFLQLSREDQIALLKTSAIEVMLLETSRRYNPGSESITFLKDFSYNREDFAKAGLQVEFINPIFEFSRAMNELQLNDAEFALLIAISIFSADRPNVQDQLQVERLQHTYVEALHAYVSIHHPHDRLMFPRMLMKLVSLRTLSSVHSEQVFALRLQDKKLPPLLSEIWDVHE
Chain of Oxysterols receptor LXR-alpha (Q13133 whole entry): as above
Chain of C-X-C chemokine receptor type 2 (Homo sapiens) (P25025 whole entry): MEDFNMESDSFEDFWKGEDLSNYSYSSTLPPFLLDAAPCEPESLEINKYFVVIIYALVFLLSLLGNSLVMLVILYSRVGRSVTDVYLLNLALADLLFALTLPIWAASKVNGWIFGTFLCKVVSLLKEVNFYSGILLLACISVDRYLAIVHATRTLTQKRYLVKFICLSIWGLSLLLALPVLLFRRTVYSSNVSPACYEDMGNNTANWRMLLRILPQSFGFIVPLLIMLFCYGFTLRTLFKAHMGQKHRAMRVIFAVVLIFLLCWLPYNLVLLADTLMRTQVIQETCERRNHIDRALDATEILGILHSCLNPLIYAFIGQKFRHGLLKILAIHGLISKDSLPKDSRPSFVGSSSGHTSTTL
Chain of Ephrin type-A receptor 2 (Homo sapiens) (P29317 whole entry): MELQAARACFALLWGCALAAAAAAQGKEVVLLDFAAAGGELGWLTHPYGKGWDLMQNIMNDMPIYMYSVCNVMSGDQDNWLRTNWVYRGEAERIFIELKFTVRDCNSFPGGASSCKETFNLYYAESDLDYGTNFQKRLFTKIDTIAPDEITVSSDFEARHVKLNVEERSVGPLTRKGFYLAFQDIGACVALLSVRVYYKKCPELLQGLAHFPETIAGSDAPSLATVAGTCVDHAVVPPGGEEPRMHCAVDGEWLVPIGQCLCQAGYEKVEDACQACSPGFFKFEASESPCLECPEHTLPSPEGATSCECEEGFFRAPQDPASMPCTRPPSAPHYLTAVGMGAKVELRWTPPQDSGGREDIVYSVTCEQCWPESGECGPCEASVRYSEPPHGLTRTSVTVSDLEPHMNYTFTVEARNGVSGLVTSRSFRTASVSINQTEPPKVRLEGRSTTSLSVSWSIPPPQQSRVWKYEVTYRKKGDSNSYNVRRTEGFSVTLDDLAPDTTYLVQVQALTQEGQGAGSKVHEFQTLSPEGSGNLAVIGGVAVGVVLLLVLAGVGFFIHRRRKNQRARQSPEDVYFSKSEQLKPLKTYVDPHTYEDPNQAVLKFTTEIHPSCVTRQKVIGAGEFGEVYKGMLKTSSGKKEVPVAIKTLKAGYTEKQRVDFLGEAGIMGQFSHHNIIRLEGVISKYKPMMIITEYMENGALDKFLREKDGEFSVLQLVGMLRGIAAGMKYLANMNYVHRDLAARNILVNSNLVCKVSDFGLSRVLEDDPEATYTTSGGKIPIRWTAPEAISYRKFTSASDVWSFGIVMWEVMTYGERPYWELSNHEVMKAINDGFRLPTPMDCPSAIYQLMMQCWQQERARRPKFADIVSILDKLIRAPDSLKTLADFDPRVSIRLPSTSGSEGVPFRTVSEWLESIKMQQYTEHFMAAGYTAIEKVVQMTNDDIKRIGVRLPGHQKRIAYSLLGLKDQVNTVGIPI

COc1nc2ccc([C@@](O)(c3ccccc3)C3CCN(C(C)=O)CC3)cc2c(Cl)c1Cc1ccc(-n2cccn2)cc1 [JNJ-54119936]
Ki ([1]; read-out: Ki): 3.13 µM | Ki ([1]; read-out: pKi (converted)): 3.02 µM | inhibition [2]: 4% | inhibition [3]: 6% | inhibition [4]: 4% | inhibition [5]: 1% | inhibition [6]: 31% | IC50 [7]: 6.4 µM | inhibition [8]: 33% | IC50 (Bile acid receptor): 5.8 µM | inhibition [9]: 13% | IC50 (Glucocorticoid receptor): ~6 µM | inhibition [10]: 16.8% | inhibition [11]: 10% | inhibition ([12]; Compound concentration 1.0 uM): 20% | inhibition ([12]; Compound concentration 10.0 uM): 22% | inhibition ([13]; Compound concentration 0.3 uM): -3.53% | inhibition ([13]; Compound concentration 1.0 uM): -5.27% | inhibition ([13]; Compound concentration 3.0 uM): 0.29% | inhibition [14]: 15.2%
